Data reported in patent US7763610B2, “Carboxylic acid derived benzoxazines as agents for the treatment of respiratory diseases” (Ono Pharmaceutical Co., Ltd., priority 2003, dated 2010).

Target: T1, cysLT2 receptor (Homo sapiens, UniProt Q9NS75)
T1 construct: expressed in transfected cells; host or cells: HEK293
T1 sequence (Q9NS75 1-346): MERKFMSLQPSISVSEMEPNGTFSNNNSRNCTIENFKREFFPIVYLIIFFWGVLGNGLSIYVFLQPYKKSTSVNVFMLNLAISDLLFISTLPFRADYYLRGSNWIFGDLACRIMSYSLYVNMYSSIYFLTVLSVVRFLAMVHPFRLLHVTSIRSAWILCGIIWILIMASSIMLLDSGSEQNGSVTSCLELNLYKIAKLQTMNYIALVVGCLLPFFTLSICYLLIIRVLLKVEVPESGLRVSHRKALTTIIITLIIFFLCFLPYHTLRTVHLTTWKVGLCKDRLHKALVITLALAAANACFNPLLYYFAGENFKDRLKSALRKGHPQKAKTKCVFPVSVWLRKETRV
Assay: Effect on LTD4-induced increase of intracellular calcium
Type: cell-based
Details: HEK293 expression cells of cysLT2 receptor, 100 nM LTD4, compound 180 seconds before stimulation; read-out: IC50 value (50% inhibitory concentration, LTD4-induced intracellular calcium influx)
Experimental: Expression cells of cysLT2 receptor (HEK293) were seeded in a 96-well plate each containing 1×10^5 cells. The cells were cultured for 24 hours in a 5% CO2 at 37° C. using DMEM (Dulbecco's Modified Eagle Medium). The cells were incubated in 7.5 μM Fura2-AM, 20 mM HEPES (2-[4-(2-hydroxyethyl)-1-piperazinyl]ethanesulfonic acid) and 2.5 mM probenecid for approximately 30 minutes at 37° C. The cells with uptake of Fura2-AM were once washed with assay buffer (Hank's buffer containing 20 mM HEPES) and intracellular calcium influx induced by LTD4 was measured by FDSS2000 (Hamamatsu Photonics K.K.). The compound of the present invention was administered 180 seconds before LTD4 stimulation, and the reaction induced by 100 nM LTD4 was measured in time course for 90 seconds. The effect of the compound of the present invention was evaluated by maximum fluorescence intensity, and 50% inhibitory concentration (IC50) was calculated on each compound.

Row | IC50 [µM] | Compound
1 | 0.03 | O=C(O)CCCN1CC(C(=O)O)Oc2c(OCc3ccc(OCCCCc4ccccc4)cc3)cccc21 (centres unmarked) [Example 25]
2 | 0.101 | O=C(O)CCC(=O)N1CC(c2nnn[nH]2)Oc2c(NC(=O)c3ccc(OCCCCc4ccccc4)cc3)cccc21 (centres unmarked) [Example 12]
